Read-outs that look alike come from different tables or passages of the source.
Tests used:
Type in all cases: cell-based
[1] = target: N-type calcium channel subunits (α1B, α2δ, and β3a) (Homo sapiens, UniProt Q00975); assay: Block of Cav2.2 channel, whole cell voltage clamp, manual and PatchXpress; conditions: Table 5; table follows Assay Example 3 (whole cell voltage clamp / PatchXpress); assay not given
Method: Cells are grown either on poly-D-lysine coated coverglass (manual EP) or in TIS culture plates (PatchXpress). For the PatchExpress, cells are released from the flask using trypsin. In both cases, the […] solution is (in mM): 130 […], 10 EGTA, 10 HEPES, 2 MgCl2, 3 MgATP, pH 7.3 with CsOH.
Microelectrodes are fabricated from borosilicate glass and fire-polished. […] The reference electrode is a silver-silver chloride pellet. Voltages are not corrected for the liquid junction potential between the internal and external solutions and leak is subtracted using the P/n procedure. Solutions are applied to cells by bath perfusion via gravity. The experimental chamber volume is—0.2 mL. and the perfusion rate is 0.5-2 mL/min. Flow of suction through the chamber is maintained at all times. Measurement of current amplitudes is performed with […] software (HEKA Elektronik).
PatchXpress (Molecular Devices) is a 16-well whole-cell automated patch clamp device that operates asynchronously with fully integrated fluidics. […] Capacitance and series resistance compensation is automated. No correction for liquid junction potentials is employed. Leak is subtracted using the P/n procedure. Compounds are added to cells with a pipettor from a 96-well compound plate. Voltage protocols and the recording of membrane currents are performed using the PatchXpress software/hardware system. Current amplitudes are calculated with DataXpress software.
In both manual and automated patch clamp, cells are voltage clamped at […] or −90 m V and 50 ms pulses to +20 mV are applied every 15 sec (0.067 Hz). Compounds are added in escalating doses to measure % inhibition. Percent inhibition is calculated from the ratio of the curerent amplitude in the presence and absence of compound. When multiple doses are achieved per cell, IC50 values are calculated.

Human Cav 2.2 channels = Human Cav 2.2 channels (Homo sapiens, UniProt Q00975); assay: Fluorescent assay for CaV2.2 channels using potassium depolarization (VIPR/FLIPR); conditions: FLIPR data; for CAv2.2 IC50 Ratio closed/inact.: ratio closed/inactivated IC50
Excerpt: Human Cav 2.2 channels were stably expressed in HEK293 cells along with alpha2-delta and beta subunits of voltage-gated calcium channels. An inwardly rectifying potassium channel (Kir2.3) was also expressed in these cells to allow more precise control of the cell membrane potential by extracellular potassium concentration. At low bath potassium concentration, the membrane potential is relatively negative, and is depolarized as the bath potassium concentration is raised. In this way, the bath potassium concentration can be used to regulate the voltage-dependent conformations of the channels. […] After the incubation period, Cav2.2 channel opening is triggered by addition of higher concentration of potassium (70 mM final concentration) to further depolarize the cell. The degree of state-dependent block can be estimated from the inhibitory potency of compounds after incubation in different potassium concentrations.
Calcium influx through Cav 2.2 channels is determined using a calcium sensitive fluorescent dye in combination with a fluorescent plate reader. Fluorescent changes were measured with either a VIPR (Aurora Instruments) or FLIPR (Molecular Devices) plate reader.
1. Seed cells in Poly-D-Lysine Coated 96 or 384-well plate and keep in a 3rC-IO % C02 incubator overnight.
2. Remove media, wash cells with 0.2 mL (96-well plate) or 0.05 mL (384-well plate) Dulbecco's Phosphate Buffered Saline (D-PBS) with calcium & magnesium (Invitrogen; 14040).
3. Add 0.1 mL (96-well plate) or 0.05 mL (384-well plate) of 4˜M fluor-4 (Molecular Probes; F-14202) and 0.02% Pluronic acid (Molecular Probes; P-3(00) prepared in D-PBS with calcium & magnesium (Invitrogen; 14040) supplemented with 10 mM Glucose & 10 mM HepeslNaOH; pH 7.4.
4. Incubate in the dark at 25° C. for 60-70 min.
5. Remove dye, wash cells with 0.1 mL (96-well plate) or 0.06 mL (384-well plate) of 4, 12, 25, or 30 mM Potassium Pre-polarization Buffer (PPB).
6. Add 0.1 mL (96-well plate) or 0.03 mL (384-well plate) of 4, 12, 25, 30 mM PPB with or without test compound.
7. Incubate in the dark at 25° C. for 30 min
8. Read cell plate on VIPR instrument, Excitation=480 nm, Emission=535 nm.
9. With VIPR continuously reading, add 0.1 mL (96-well plate) or 0.03 mL (384-well plate) of Depolarization Buffer (DB), which is 2× the final assay concentration, to the cell plate.

T-type calcium channel = T-type calcium channel (Homo sapiens, UniProt O95180); assay: T-type channel blocking, FLIPR data (Table 6); conditions: for CAv3.2 IC50 Ratio closed/inact.: CAv3.2, ratio closed/inactivated IC50
Excerpt: Another method, high-throughput spectrophotometric assay, utilizes loading of the cell lines with a fluorescent dye sensitive to intracellular calcium concentration and subsequent examination of the effects of compounds on the ability of depolarization by potassium chloride or other means to alter intracellular calcium levels.

CAv1.2 = CAv1.2 (Homo sapiens, UniProt Q13936); assay: FLIPR data, CAv1.2 channel blocking (Table 6)
Sequence of CAv1.2 (Q13936 whole entry): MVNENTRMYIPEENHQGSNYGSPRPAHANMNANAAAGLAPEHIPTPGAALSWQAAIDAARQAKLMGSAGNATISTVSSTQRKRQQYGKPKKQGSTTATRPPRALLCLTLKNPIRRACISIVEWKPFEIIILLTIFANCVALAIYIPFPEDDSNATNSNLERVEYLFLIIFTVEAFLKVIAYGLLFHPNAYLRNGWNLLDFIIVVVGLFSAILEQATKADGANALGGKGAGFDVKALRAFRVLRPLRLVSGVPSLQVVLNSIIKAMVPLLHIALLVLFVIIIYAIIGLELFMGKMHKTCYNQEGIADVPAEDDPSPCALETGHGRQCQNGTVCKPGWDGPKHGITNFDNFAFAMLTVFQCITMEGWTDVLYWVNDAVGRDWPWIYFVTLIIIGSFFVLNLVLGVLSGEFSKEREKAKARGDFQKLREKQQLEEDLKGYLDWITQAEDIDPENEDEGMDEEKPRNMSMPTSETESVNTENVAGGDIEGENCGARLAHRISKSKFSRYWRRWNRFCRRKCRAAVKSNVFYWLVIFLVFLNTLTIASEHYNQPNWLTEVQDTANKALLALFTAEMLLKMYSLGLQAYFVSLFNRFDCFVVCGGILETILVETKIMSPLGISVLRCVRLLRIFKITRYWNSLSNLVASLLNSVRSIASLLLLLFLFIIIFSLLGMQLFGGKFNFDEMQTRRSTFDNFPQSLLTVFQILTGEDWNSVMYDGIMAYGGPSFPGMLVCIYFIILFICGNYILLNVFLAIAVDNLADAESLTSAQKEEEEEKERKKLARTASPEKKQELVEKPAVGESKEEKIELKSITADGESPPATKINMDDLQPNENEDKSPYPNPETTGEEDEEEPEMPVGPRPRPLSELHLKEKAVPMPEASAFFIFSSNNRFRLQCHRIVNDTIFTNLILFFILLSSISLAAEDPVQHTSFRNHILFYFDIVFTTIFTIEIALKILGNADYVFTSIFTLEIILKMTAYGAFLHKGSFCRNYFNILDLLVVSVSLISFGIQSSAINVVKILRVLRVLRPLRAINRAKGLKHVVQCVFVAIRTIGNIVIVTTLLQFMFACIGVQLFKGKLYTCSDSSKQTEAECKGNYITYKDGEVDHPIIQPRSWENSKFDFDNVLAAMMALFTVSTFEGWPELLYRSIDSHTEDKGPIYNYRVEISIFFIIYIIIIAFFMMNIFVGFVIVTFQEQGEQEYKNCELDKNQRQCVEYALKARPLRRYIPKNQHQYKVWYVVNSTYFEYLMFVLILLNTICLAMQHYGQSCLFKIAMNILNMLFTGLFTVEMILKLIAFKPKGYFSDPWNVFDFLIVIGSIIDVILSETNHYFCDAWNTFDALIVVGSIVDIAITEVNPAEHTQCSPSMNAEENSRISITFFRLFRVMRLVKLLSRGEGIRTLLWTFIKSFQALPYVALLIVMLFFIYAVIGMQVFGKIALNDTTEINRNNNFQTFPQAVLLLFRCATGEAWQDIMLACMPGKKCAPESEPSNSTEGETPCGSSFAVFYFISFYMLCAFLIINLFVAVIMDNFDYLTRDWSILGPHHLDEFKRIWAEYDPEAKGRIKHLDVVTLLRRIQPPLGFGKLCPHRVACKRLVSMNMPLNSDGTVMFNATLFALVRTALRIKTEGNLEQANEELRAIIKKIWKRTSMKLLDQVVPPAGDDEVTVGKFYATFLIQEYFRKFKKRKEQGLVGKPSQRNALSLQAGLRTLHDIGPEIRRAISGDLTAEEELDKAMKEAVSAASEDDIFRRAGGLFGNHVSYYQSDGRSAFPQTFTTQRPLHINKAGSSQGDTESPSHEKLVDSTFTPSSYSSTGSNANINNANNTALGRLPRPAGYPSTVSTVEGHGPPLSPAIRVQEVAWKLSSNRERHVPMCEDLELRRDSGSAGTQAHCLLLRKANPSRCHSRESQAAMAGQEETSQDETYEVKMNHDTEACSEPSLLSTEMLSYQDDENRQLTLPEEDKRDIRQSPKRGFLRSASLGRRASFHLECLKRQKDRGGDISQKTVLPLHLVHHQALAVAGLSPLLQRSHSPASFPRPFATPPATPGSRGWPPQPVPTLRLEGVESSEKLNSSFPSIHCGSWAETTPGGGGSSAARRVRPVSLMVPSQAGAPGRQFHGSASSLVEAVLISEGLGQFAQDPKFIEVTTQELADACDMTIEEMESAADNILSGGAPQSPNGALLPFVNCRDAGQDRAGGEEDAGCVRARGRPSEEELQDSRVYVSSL
Sequence of CAv1.2 (P54289 25-1103 partner): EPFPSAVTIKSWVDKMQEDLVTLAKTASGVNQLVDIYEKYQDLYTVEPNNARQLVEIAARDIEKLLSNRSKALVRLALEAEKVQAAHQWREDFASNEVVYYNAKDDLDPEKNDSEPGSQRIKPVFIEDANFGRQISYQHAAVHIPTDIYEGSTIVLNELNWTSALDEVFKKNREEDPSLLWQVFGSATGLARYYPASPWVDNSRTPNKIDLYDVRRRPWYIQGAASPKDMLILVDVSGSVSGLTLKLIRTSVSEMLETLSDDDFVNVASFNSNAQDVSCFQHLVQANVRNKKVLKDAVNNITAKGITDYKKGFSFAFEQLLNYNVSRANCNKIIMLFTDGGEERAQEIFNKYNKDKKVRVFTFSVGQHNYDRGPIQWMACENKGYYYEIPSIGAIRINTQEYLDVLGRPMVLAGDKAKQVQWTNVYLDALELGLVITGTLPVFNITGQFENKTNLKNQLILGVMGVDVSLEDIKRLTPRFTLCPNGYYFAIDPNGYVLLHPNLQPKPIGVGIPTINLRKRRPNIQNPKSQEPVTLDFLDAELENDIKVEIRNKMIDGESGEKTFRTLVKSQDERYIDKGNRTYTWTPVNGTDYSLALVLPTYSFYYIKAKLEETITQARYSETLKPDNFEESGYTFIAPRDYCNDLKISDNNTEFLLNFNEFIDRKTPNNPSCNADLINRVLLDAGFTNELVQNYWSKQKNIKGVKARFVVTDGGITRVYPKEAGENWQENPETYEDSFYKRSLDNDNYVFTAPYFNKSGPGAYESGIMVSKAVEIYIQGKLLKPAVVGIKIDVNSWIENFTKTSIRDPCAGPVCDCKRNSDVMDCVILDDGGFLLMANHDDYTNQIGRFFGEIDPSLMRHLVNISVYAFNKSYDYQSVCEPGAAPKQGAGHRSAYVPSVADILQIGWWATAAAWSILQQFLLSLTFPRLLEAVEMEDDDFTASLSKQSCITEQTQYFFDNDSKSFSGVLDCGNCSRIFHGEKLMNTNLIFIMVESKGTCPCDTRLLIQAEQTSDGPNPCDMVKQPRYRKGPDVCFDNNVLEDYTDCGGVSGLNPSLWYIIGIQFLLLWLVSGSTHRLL
Sequence of CAv1.2 (Q08289 whole entry partner): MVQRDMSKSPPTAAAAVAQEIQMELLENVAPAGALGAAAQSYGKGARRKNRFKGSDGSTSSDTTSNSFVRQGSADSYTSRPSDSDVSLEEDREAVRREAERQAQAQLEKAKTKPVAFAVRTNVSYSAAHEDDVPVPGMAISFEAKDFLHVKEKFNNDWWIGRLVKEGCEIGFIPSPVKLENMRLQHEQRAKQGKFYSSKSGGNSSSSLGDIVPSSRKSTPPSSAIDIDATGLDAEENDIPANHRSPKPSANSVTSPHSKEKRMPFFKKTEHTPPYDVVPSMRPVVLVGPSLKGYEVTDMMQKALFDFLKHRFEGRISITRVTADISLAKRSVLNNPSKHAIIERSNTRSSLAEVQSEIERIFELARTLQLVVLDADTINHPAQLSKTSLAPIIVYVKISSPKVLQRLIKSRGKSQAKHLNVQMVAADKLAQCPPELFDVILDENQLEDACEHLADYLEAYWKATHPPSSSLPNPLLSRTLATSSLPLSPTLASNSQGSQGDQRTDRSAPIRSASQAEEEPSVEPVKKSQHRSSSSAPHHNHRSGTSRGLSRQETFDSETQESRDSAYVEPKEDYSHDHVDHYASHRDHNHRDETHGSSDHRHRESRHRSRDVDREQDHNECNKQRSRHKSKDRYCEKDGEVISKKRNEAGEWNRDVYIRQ

[2] = closed state, read-out: CAv2.2 IC50 Closed
[3] = inactivated state, read-out: CAv2.2 IC50 Inact.
[4] = CAv3.2, inactivated state, read-out: CAv3.2 IC50 Inact.
[5] = closed state, read-out: CAv1.2 IC50 Closed
[6] = inactivated state, read-out: CAv1.2 IC50 Inact.
[7] = CAv3.2, closed state, read-out: CAv3.2 IC50 Closed

Compound	IC50 [1] [nM]	IC50 (Human Cav 2.2 channels; [2]) [µM]	IC50 (Human Cav 2.2 channels; [3]) [µM]	CAv2.2 IC50 Ratio closed/inact. (Human Cav 2.2 channels)	IC50 (T-type calcium channel; [4]) [µM]	IC50 (CAv1.2; [5]) [µM]	IC50 (CAv1.2; [6]) [µM]	IC50 (T-type calcium channel; [7]) [µM]	CAv3.2 IC50 Ratio closed/inact. (T-type calcium channel)	CAv1.2 IC50 Ratio closed/inact. (CAv1.2; ratio closed/inactivated IC50)
2-(methylsulfonyl)-6-(trifluoromethyl)- N-(((1S,3S)-3- (3-(trifluoromethyl) phenylsulfonyl)cyclobutyl) methyl)nicotinamide [Compound 382]	1710	–	–	–	–	–	–	–	–	–
2-chloro-6-(trifluoromethyl)-N- ((1R,4R)-4-(3- (tritluoromethyl)phenylsulfonyl) cyclohexyl)nicotinamide [Compound 187]	7000	–	–	–	–	–	–	–	–	–
2-chloro-6-(trifluoromethyl)-N- ((1S,4S)-4-(3- (trifluoromethyl)phenylsulfonyl) cyclohexyl)nicotinamide [Compound 200]	1020	–	–	–	–	–	–	–	–	–
2-fluoro-N-((1R,4R)-4-(3- (trifluoromethyl)phenylsulfonyl) cyclohexyl)isonicotinamide [Compound 188]	5610	–	–	–	–	–	–	–	–	–
3-(methylsulfonyl)-5-(trifluoromethyl)- N-(((1S,3S)- 3-(3-(trifluoromethyl) phenylsulfonyl)cyclobutyl) methyl)picolinamide [Compound 388]	1060	–	–	–	–	–	–	–	–	–
4,5-dichloro-N-((1R,4R)-4-(3- (trifluoromethyl)phenylsulfonyl) cyclohexyl)isothiazole-3- carboxamide [Compound 183]	1990	–	–	–	–	–	–	–	–	–
CNC1(CC(=O)N[C@H]2C[C@H](C(C)(C)S(=O)(=O)c3cc(F)cc(C(F)(F)F)c3)C2)CCCCC1 [Compound 659]	–	9.71	1.93	5	10	≥ 10	≥ 10	–	–	–
CNC1(CC(=O)N[C@H]2C[C@@H](C(C)(C)S(=O)(=O)c3cccc(OC(F)(F)F)c3)C2)CCCCC1 [Compound 661]	–	8.03	1.53	5.2	10	≥ 10	≥ 10	–	–	–
CNC1(CC(=O)N[C@H]2C[C@H](C(C)(C)S(=O)(=O)c3cccc(OC(F)(F)F)c3)C2)CCCCC1 [Compound 662]	–	5.65	1.25	4.5	10	≥ 10	≥ 10	–	–	–
O=C(NC[C@H]1C[C@H](S(=O)(=O)c2cccc(OC(F)(F)F)c2)C1)c1ccnc(C(F)(F)F)n1 [Compound 697]	–	3.78	0.71	5.3	8.91	≥ 10	≥ 10	≥ 10	1.1	–
O=C(NC[C@H]1C[C@H](S(=O)(=O)c2cccc(OC(F)(F)F)c2)C1)c1ccc(OCC(F)(F)F)nc1 [Compound 699]	–	7.86	–	3.1	–	≥ 10	–	≥ 10	1	–
CS(=O)(=O)c1cc(C(F)(F)F)cnc1C(=O)NC[C@H]1C[C@H](S(=O)(=O)c2cc(F)cc(C(F)(F)F)c2)C1 [Compound 701]	–	10	2.21	4.5	10	–	≥ 10	–	–	–
NC1(CC(=O)NC[C@H]2C[C@H](S(=O)(=O)c3cc(F)cc(C(F)(F)F)c3)C2)CCCCC1 [Compound 708]	–	7.67	3.03	2.5	10	≥ 10	≥ 10	–	–	–
N[C@H]1CCCCC1C(=O)NC[C@H]1C[C@H](S(=O)(=O)c2cccc(OC(F)(F)F)c2)C1 (some centres unmarked) [Compound 709]	–	7.5	2.34	3.2	10	≥ 10	–	≥ 10	1	–
N[C@H]1CCCC[C@@H]1C(=O)NC[C@H]1C[C@H](S(=O)(=O)c2cc(F)cc(C(F)(F)F)c2)C1 [Compound 712]	–	10	6.02	1.7	10	≥ 10	≥ 10	–	–	–
N[C@@H]1CCCC[C@H]1C(=O)NC[C@H]1C[C@H](S(=O)(=O)c2cccc(OC(F)(F)F)c2)C1 [Compound 714]	–	5.77	2.29	2.5	10	≥ 10	–	≥ 10	1	–
CS(=O)(=O)c1cc(Cl)ccc1C(=O)NC[C@H]1C[C@H](S(=O)(=O)c2cc(F)cc(C(F)(F)F)c2)C1 [Compound 715]	–	10	1.38	7.2	7.51	≥ 10	≥ 10	≥ 10	1.3	–
CC(C)(C[C@H]1C[C@H](NC(=O)c2ncc(C(F)(F)F)cc2S(C)(=O)=O)C1)S(=O)(=O)c1cccc(C(F)(F)F)c1 [Compound 717]	–	8.63	0.49	17.6	9.98	≥ 10	≥ 10	≥ 10	1	–
CC(C)(C[C@H]1C[C@H](NC(=O)CC2(N)CCCCC2)C1)S(=O)(=O)c1cccc(C(F)(F)F)c1 [Compound 726]	–	2.77	0.9	3.1	10	≥ 10	≥ 10	≥ 10	1	–
CC(C)(C[C@H]1C[C@H](NC(=O)[C@@H]2CCCC[C@@H]2N)C1)S(=O)(=O)c1cccc(C(F)(F)F)c1 [Compound 727]	–	4.1	0.95	4.3	10	–	≥ 10	–	–	–
CC(C)(C[C@H]1C[C@H](NC(=O)[C@@H]2CCCC[C@H]2N)C1)S(=O)(=O)c1cccc(C(F)(F)F)c1 [Compound 728]	–	3.64	1.56	2.3	10	≥ 10	–	–	–	–
CC(C)(C[C@H]1C[C@@H](NC(=O)c2ncc(C(F)(F)F)cc2S(C)(=O)=O)C1)S(=O)(=O)c1cccc(C(F)(F)F)c1 [Compound 730]	–	9.1	0.46	19.8	10	≥ 10	≥ 10	≥ 10	1	–
CC(C)(C[C@H]1C[C@@H](NC(=O)CC2(N)CCCCC2)C1)S(=O)(=O)c1cccc(C(F)(F)F)c1 [Compound 739]	–	2.89	1	2.9	10	8.86	≥ 10	≥ 10	1	0.9

Reference: patent US20120245137A1 (Zalicus Pharmaceuticals Ltd., priority 2009, published 2012)
